For the test, the system named is rat. Briefly: animal or person. Format: in vivo. The settings on record: for ED50: ip.

Values joined by “and” are separate entries in the source; they are usually repeats but may differ in a detail not shown here. Identical values can stand only once.

This is an account of results in patent US8912226B2 (priority 2012, dated 2014).

`O=C(O)Cc1ccccc1Nc1c(Cl)cccc1Cl` [Diclofenac sodium] came in with an ED50 (Rattus norvegicus, 2 h) of 127 mg/kg. For the same compound, for the setting “rat, in vivo”, the “timepoint of peak effect” value is reported as 120 min p. appl; the ED50 was 127,036 μg/kg and 127,036 (119,433- μg/kg.

Take `COc1ccc2c(c1)c(CC(=O)O)c(C)n2C(=O)c1ccc(Cl)cc1` [Indometacin]: the ED50 (Rattus norvegicus, 2 h) is 161 mg/kg. Under “rat, in vivo”, the “timepoint of peak effect” value turned out to be 120 min p. appl; the ED50 was 161,327 μg/kg and 161,327 (149,231- μg/kg.
